Measurements reported in patent US7635716B2, “Substituted cyclopentanes or cyclopentanones as therapeutic agents” (Allergan, Inc., priority 2005, dated 2009).
Where two headings read alike, the source gives them in different places.

Legend:
hEP2/Gqs5 = biological target: T1, hEP2/Gqs5 (Homo sapiens, UniProt P43116); assay: FLIPR calcium signal, HEK-293(EBNA) cells; assay type: cell-based
T1 construct: expressed in transfected cells; host or cells: HEK-293(EBNA) cells
Procedure: (§1) HEK-293(EBNA) cells, stably expressing one type or subtype of recombinant human prostaglandin receptors (prostaglandin receptors expressed: hDP/Gqs5; hEP1; hEP2/Gqs5; hEP3A/Gqi5; hEP4/Gqs5; hFP; hIP; hTP), were cultured in 100 mm culture dishes in high-glucose DMEM medium containing 10% fetal bovine serum, 2 mM 1-glutamine, 250 μg/ml geneticin (G418) and 200 μg/ml hygromycin B as selection markers, and 100 units/ml penicillin G, 100 μg/ml streptomycin and 0.25 μg/ml amphotericin B.
(§2) Cells were seeded at a density of 5×10^4 cells per well in Biocoat® Poly-D-lysine-coated black-wall, clear-bottom 96-well plates (Becton-Dickinson) and allowed to attach overnight in an incubator at 37° C. Cells were then washed two times with HBSS-HEPES buffer (Hanks Balanced Salt Solution without bicarbonate and phenol red, 20 mM HEPES, pH 7.4) using a Denley Cellwash plate washer (Labsystems). After 45 minutes of dye-loading in the dark, using the calcium-sensitive dye Fluo-4 AM at a final concentration of 2 μM, plates were washed four times with HBSS-HEPES buffer to remove excess dye leaving 100 μl in each well. Plates were re-equilibrated to 37° C. for a few minutes.
(§3) Cells were excited with an Argon laser at 488 nm, and emission was measured through a 510-570 nm bandwidth emission filter (FLIPR™, Molecular Devices, Sunnyvale, Calif.). Drug solution was added in a 50 μl volume to each well to give the desired final concentration. The peak increase in fluorescence intensity was recorded for each well. On each plate, four wells each served as negative (HBSS-HEPES buffer) and positive controls (standard agonists: BW245C (hDP); PGE2 (hEP1; hEP2/Gqs5; hEP3A/Gqi5; hEP4/Gqs5); PGF2. (hFP); carbacyclin (hIP); U-46619 (hTP), depending on receptor). The peak fluorescence change in each drug-containing well was then expressed relative to the controls.
(§4) Compounds were tested in a high-throughput (HTS) or concentration-response (CoRe) format. In the HTS format, forty-four compounds per plate were examined in duplicates at a concentration of 10^−5 M. To generate concentration-response curves, four compounds per plate were tested in duplicates in a concentration range between 10^−5 and 10^−11 M. The duplicate values were averaged. In either, HTS or CoRe format each compound was tested on at least 3 separate plates using cells from different passages to give an n≧3.

hEP4/Gqs5 = biological target: T2, hEP4/Gqs5 (Homo sapiens, UniProt P35408); assay: FLIPR calcium signal, HEK-293(EBNA) cells; assay type: cell-based
T2 construct: expressed in transfected cells; host or cells: HEK-293(EBNA) cells
Procedure: as §1, §2, §3, §4

hEP1 = biological target: T3, hEP1 (Homo sapiens, UniProt P34995); assay: FLIPR calcium signal, HEK-293(EBNA) cells; assay type: cell-based
T3 construct: expressed in transfected cells; host or cells: HEK-293(EBNA) cells
T3 sequence (P34995 1-402): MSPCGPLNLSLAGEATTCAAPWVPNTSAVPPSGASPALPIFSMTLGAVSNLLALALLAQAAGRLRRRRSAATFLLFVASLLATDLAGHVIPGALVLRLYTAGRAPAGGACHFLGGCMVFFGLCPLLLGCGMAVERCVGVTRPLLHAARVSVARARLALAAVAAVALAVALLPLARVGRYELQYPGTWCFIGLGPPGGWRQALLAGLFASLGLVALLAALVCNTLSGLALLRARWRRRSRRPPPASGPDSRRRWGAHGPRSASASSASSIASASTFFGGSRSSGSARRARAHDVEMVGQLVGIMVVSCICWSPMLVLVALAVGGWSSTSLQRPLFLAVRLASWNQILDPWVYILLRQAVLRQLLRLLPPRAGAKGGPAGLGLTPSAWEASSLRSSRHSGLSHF
Procedure: as §1, §2, §3, §4

hDP/Gqs5 = biological target: T4, hDP/Gqs5 (Homo sapiens, UniProt Q13258); assay: FLIPR calcium signal, HEK-293(EBNA) cells; assay type: cell-based
T4 construct: expressed in transfected cells; host or cells: HEK-293(EBNA) cells
T4 sequence (Q13258 1-359): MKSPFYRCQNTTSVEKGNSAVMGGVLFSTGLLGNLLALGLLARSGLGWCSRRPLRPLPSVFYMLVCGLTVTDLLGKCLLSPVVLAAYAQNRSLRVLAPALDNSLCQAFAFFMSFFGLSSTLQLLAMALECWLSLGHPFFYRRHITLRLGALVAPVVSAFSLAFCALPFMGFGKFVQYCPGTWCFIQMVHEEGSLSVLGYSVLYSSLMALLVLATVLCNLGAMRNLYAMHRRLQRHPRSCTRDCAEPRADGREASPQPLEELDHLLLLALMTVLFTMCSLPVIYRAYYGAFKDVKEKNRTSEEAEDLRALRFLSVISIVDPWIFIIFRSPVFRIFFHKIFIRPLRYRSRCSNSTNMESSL
Procedure: as §1, §2, §3, §4

hEP3A/Gqi5 = biological target: T5, hEP3A/Gqi5 (Homo sapiens, UniProt P43115); assay: FLIPR calcium signal, HEK-293(EBNA) cells; assay type: cell-based
T5 construct: expressed in transfected cells; host or cells: HEK-293(EBNA) cells
T5 sequence (P43115 1-390): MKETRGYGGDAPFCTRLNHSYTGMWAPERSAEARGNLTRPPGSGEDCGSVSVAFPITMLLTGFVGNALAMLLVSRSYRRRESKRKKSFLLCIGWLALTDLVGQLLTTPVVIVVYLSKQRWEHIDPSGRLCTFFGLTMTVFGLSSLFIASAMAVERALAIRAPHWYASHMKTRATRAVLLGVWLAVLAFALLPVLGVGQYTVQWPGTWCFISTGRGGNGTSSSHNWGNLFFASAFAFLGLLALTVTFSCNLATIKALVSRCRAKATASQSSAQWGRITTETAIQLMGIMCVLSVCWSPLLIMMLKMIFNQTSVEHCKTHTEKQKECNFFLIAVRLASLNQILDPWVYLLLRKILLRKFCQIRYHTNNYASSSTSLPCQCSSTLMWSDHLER
Procedure: as §1, §2, §3, §4

normotensive dogs [1] = assay: Ocular surface hyperemia (OSH) in normotensive dogs; assay type: in vivo, dog; parameters: maximum OSH score: scale not given here; conditions: 0.1%, dosing once daily for 5 days
Procedure: (§5) (Z)-7-[(1R,2S,3R,5R)-5-Chloro-2-(3,5-dichloro-phenoxymethyl)-3-hydroxy-cyclopentyl]-hept-5-enoic acid (15b) was tested at multiple concentrations in normotensive dogs, dosing once daily for 5 days. At 0.05%, the maximum IOP decrease from baseline was 4.3 mmHg (30%) at 6 h; the maximum OSH score was 0.6 at 6 h. […] This compound was also tested in laser-induced hypertensive monkeys, using one single day dose. At 0.1%, the maximum IOP decrease from baseline was 6 mmHg (19%) at 6 h.
(§6) (Z)-7-[(1R,2S,3R,5R)-5-Chloro-2-(3,5-dichloro-phenoxymethyl)-3-hydroxy-cyclopentyl]-hept-5-enoic acid isopropyl ester (42b) was tested in normotensive dogs at 0.05%, dosing once daily for 5 days. The maximum intraocular pressure (IOP) decrease from baseline was 3 mmHg (19%) at 6 h; the maximum ocular surface hyperemia (OSH) score was 0.6 at 74 h. This compound was also tested in laser-induced hypertensive monkeys, using one single day dose. At 0.01%, the maximum IOP decrease from baseline was 6 mmHg (16%) at 6 h.

[2] = test system: laser-induced hypertensive monkeys; assay: Intraocular pressure (IOP) in laser-induced hypertensive monkeys; assay type: in vivo, monkey; conditions: Primates, topical, 0.1%, one single day dose, read-out: maximum IOP decrease from baseline (percent)
Procedure: as §5, §6

normotensive dogs [3] = assay: Intraocular pressure (IOP) in normotensive dogs; assay type: in vivo, dog; conditions: Canis lupus familiaris, topical, 120 h, 0.1%, dosing once daily for 5 days, read-out: maximum IOP decrease from baseline (percent)
Procedure: as §5, §6

[4] = Table 1, first part, triplicate, read-out: functional data (EC50) hEP2
[5] = Table 1, second part, read-out: hEP2 flipr EC50
[6] = Table 1, first part, triplicate, read-out: functional data (EC50) hEP4
[7] = Table 1, second part, read-out: hEP4 flipr EC50
[8] = Table 1, second part, quantity not given, values match functional data (EC50) of first part, read-out: Other Receptors hEP3

T1 sequence (P43116 whole entry): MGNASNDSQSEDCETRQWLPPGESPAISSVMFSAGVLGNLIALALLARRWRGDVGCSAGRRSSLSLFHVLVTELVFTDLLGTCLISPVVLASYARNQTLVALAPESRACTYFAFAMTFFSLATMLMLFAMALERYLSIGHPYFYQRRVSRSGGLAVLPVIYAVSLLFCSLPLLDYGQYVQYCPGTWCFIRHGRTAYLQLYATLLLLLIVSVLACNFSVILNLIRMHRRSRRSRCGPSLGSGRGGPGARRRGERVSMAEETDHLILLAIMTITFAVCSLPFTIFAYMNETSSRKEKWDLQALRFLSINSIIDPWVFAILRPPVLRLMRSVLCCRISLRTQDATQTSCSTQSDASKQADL
T2 sequence (P35408 whole entry): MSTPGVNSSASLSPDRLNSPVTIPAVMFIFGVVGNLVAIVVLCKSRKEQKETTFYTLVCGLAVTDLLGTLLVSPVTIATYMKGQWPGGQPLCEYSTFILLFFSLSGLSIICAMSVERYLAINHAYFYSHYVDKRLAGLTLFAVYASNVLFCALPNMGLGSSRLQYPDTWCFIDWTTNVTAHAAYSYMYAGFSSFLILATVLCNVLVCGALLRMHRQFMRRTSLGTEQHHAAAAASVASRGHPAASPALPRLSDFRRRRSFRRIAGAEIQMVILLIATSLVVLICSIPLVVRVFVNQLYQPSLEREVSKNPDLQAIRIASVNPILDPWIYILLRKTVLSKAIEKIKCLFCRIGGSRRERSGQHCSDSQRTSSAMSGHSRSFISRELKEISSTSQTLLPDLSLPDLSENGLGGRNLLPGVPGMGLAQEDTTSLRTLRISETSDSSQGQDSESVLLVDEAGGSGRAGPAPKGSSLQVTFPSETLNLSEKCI

Compound	EC50 (hEP2/Gqs5; [4]) [µM]	EC50 (hEP2/Gqs5; [5]) [µM]	EC50 (hEP4/Gqs5; [6]) [µM]	EC50 (hEP4/Gqs5; [7]) [µM]	maximum OSH score (normotensive dogs [1])	time of maximum OSH score (normotensive dogs [1]) [h]	inhibition in vivo at 0.1 % [2] [%]	inhibition in vivo at 0.1 % (normotensive dogs [3]) [%]	further results
COC(=O)CCC/C=C\C[C@H]1C(=O)C=C[C@@H]1COc1ccccc1 [Example 1, (Z)-7-((1R,5S)-2-Oxo-5-phenoxymethyl-cyclopent-3-enyl)-hept-5-enoic acid methyl ester]	> 10	> 10	> 10	> 10	–	–	–	–	–
COC(=O)CCC/C=C\C[C@H]1C(=O)C[C@@H](O)[C@@H]1COc1ccccc1 [Example 2, (Z)-7-((1R,2S,3R)-3-Hydroxy-5-oxo-2-phenoxymethyl-cyclopentyl)-hept-5-enoic acid methyl ester]	–	–	> 10	> 10	–	–	–	–	–
COC(=O)CCCCCC[C@H]1C(=O)CC[C@@H]1COc1ccccc1 [Example 5, 7-((1R,5S)-2-Oxo-5-phenoxymethyl-cyclopentyl)-heptanoic acid methyl ester]	> 10	> 10	> 10	> 10	–	–	–	–	–
COC(=O)CCC/C=C\C[C@@H]1[C@@H](COc2ccccc2)[C@H](O)C[C@H]1Cl [Example 7, (Z)-7-((1R,2S,3R,5R)-5-Chloro-3-hydroxy-2-phenoxymethyl-cyclopentyl)-hept-5-enoic acid methyl ester]	> 10	> 10	> 10	> 10	–	–	–	–	–
COC(=O)CCCCCC[C@@H]1[C@@H](COc2ccccc2)[C@H](O)C[C@H]1Cl [Example 9, 7-((1R,2S,3R,5R)-5-Chloro-3-hydroxy-2-phenoxymethyl-cyclopentyl)-heptanoic acid methyl ester]	> 10	> 10	3.71	–	–	–	–	–	–
COC(=O)CCCCCC[C@@H]1[C@@H](COc2cc(Cl)cc(Cl)c2)[C@H](O)C[C@H]1Cl [Example 13, 7-[(1R,2S,3R,5R)-5-Chloro-2-(3,5-dichloro-phenoxymethyl)-3-hydroxy-cyclopentyl]-heptanoic acid methyl ester]	1.66	–	> 10	> 10	–	–	–	–	EC50 (hEP1; Table 1, first part, triplicate, read-out: functional data (EC50) hEP1): > 10 µM; EC50 (hEP1; Table 1, second part, quantity not given, values match functional data (EC50) of first part, read-out: Other Receptors hEP1): > 10 µM; EC50 (hDP/Gqs5; Table 1, first part, triplicate, read-out: functional data (EC50) hDP): > 10 µM; EC50 (hDP/Gqs5; Table 1, second part, quantity not given, values match functional data (EC50) of first part, read-out: Other Receptors hDP): > 10 µM; EC50 (hEP3A/Gqi5; Table 1, first part, data represents a single experiment, read-out: functional data (EC50) hEP3A*): > 10 µM; EC50 (hEP3A/Gqi5; [8]): > 10 µM
O=C(O)CCC/C=C\C[C@@H]1[C@@H](COc2cc(C(F)(F)F)cc(Cl)c2F)[C@H](O)C[C@H]1Cl [Example 41, (Z)-7-[(1R,2S,3R,5R)-5-Chloro-2-(3-chloro-2-fluoro-5-trifluoromethyl-phenoxymethyl)-3-hydroxy-cyclopentyl]-hept-5-enoic acid]	–	–	–	–	–	–	–	–	EC50 (hEP3A/Gqi5; [8]): 1.64 µM

More lines, main results first:

EC50 (hEP2/Gqs5; [4]) [µM]	EC50 (hEP2/Gqs5; [5]) [µM]	EC50 (hEP4/Gqs5; [6]) [µM]	EC50 (hEP4/Gqs5; [7]) [µM]	maximum OSH score (normotensive dogs [1])	time of maximum OSH score (normotensive dogs [1]) [h]	Compound	inhibition in vivo at 0.1 % [2] [%]	inhibition in vivo at 0.1 % (normotensive dogs [3]) [%]	further results
–	–	–	–	0.9	52	O=C(O)CCC/C=C\C[C@@H]1[C@@H](COc2cc(C(F)(F)F)cc(C(F)(F)F)c2)[C@H](O)C[C@H]1Cl [Example 15, (Z)-7-[(1R,2S,3R,5R)-2-(3,5-Bis-trifluoromethyl-phenoxymethyl)-5-chloro-3-hydroxy-cyclopentyl]-hept-5-enoic acid]	30	35	–
–	–	–	–	0.8	54	O=C(O)CCC/C=C\C[C@@H]1[C@@H](COc2cccc3ccccc23)[C@H](O)C[C@H]1Cl [Example 19, (Z)-7-[(1R,2S,3R,5R)-5-Chloro-3-hydroxy-2-(naphthalen-1-yloxymethyl)-cyclopentyl]-hept-5-enoic acid]	31	41	–
–	–	–	–	0.5	6	O=C(O)CCC/C=C\C[C@@H]1[C@@H](COc2cccc(C(F)(F)F)c2)[C@H](O)C[C@H]1Cl [Example 24, (Z)-7-[(1R,2S,3R,5R)-5-Chloro-3-hydroxy-2-(3-trifluoromethyl-phenoxymethyl)-cyclopentyl]-hept-5-enoic acid]	28	16	–
–	–	–	–	1.2	28	Cc1cc(C)cc(OC[C@@H]2[C@@H](C/C=C\CCCC(=O)O)[C@H](Cl)C[C@H]2O)c1 [Example 36, (Z)-7-[(1R,2S,3R,5R)-5-Chloro-2-(3,5-dimethyl-phenoxymethyl)-3-hydroxy-cyclopentyl]-hept-5-enoic acid]	25	46	–
–	–	–	–	0.6	98	O=C(O)CCC/C=C\C[C@@H]1[C@@H](COc2ccc(CO)cc2)[C@H](O)C[C@H]1Cl [Example 43, (Z)-7-[(1R,2S,3R,5R)-5-Chloro-3-hydroxy-2-(4-hydroxymethyl-phenoxymethyl)-cyclopentyl]-hept-5-enoic acid]	6	20	–
